Results as given in patent US20230201183A1, “METHODS TO […] ENHANCE MULTIPLE […] PROTEOSTASIS […] TO TREAT NEURODEGENERATION AND STORAGE DISEASES” (Northwestern University, priority 2021, published 2023).

Tests used:
[1] = system: SNCA-3X DA neurons and α-syn overexpressing cell lines; assay: ER stress induction, UPR markers (mRNA/protein); type: cell-based, human; conditions: for XBP1-S / mRNA/protein levels of ER chaperones including GRP78, GRP94, and CANX: 30 nM Tg or 50 ng/ml BFA for 24 hours
Experimental: Total RNA was isolated from cells in a 24 or 12 well format using an RNeasy Mini Prep kit (QIAGEN). cDNA was synthesized by reverse transcriptase PCR (RT-PCR) using the RevertAid First Strand cDNA synthesis kit (Thermo Fisher Scientific). Quantitative PCR was performed on the Applied Biosystems 7500 Fast system using the cDNA and pre-designed TaqMan-primer probes for the target genes. The target mRNA expression was quantified relative to GAPDH or […] using the delta-delta-Ct method, and represented as a fold change.

[2] = system: midbrain neurons from a GD (N370S/84GG) and a PD patient that harbors a GBA1 mutation (N370S/wt); assay: GCase maturation and α-syn western blot in GBA1 mutant patient neurons; conditions: GD (N370S/84GG) and GBA-PD (N370S/wt) neurons; two weeks
A53T iPSn [3] = assay: N-glycosylated proteins by Con A-biotin western blot; type: cell-based, human
Experimental: (§1) Protein extraction was done as described in detail (Stojkovska and Mazzulli, 2021). […] Supernatant was discarded and the cell pellets were subjected to homogenization in 1% Triton X-100 buffer (1% Triton X-100, 20 mM HEPES pH 7.4, 150 mM NaCl, 10% glycerol, 1 mM EDTA, 1.5 mM MgCl2, 1 mM phenylmethanesulfonyl fluoride (PMSF), 50 mM NaF, 2 mM Na orthovanadate, and a protease inhibitor cocktail (Roche diagnostics, https://www.roche.com, #11-836-170-001)) by homogenization. […] Protein band intensities was quantified by the ImageStudio software ver 3.1.
(§2) . The transfection was performed with X-tremeGENE transfection reagent (Roche #6366236001) as described previously (Cuddy et al., 2019). Lentiviral particles were collected from the media and concentrated using Lenti-X concentrator (Clontech, #631232). […] The viral particle number and the number of plated cells was used to calculate the multiplicity of infection (MOI). For GFPT2 Overexpression the A53T neurons were infected at MOI-3 and harvested 2 weeks post-infection. A53T neurons were infected with XBP1^s lentivirus at MOI-1 and harvested 16 days post-infection. […]
(§3) Neurons were treated with or without 5 ug/ml tunicamycin (EMD Millipore/Calbiochem) for 24 hrs. Cells were extracted in 1% Triton X-100 buffer and analyzed by western blot for Hex B, Con-A, or GFPT2 as described in “Sequential protein extraction and western blotting analysis”. […]

A53T iPSn [4] = assay: Neurofilament toxicity assay (neuron viability); type: cell-based, human
Experimental: iPSC-neurons 96 well format were fixed in 4% paraformaldehyde in PBS for 20 minutes, followed by incubation in 0.3% Triton X-100 (PBS) for 20 min. The cells were then blocked with Odyssey blocking buffer (Li-Cor) for 1 h. Anti-neurofilament antibody (1:1000, mouse IgG 2H3, Developmental Studies Hybridoma Bank, University of Iowa, Iowa City, Iowa) was incubated overnight in blocking buffer at 4° C., followed by washing in PBS with 0.1% Tween for 20 min. IRdye 800-conjugated anti-mouse IgG antibodies (1:1000 dilution, Li-Cor) was incubated in blocking buffer for 1 hour and CellTag™ 700 (Li-Cor) was also added for normalization. The Cells were washed four times in PBS-0.1% Tween and scanned on an Odyssey infrared imaging system (Li-Cor). Neurofilament intensity was determined by Image Studio software (version 2.1 Li-Cor) and normalized to […].
The transfection was performed with X-tremeGENE transfection reagent (Roche #6366236001) as described previously (Cuddy et al., 2019). Lentiviral particles were collected from the media and concentrated using Lenti-X concentrator (Clontech, #631232). […] The viral particle number and the number of plated cells was used to calculate the multiplicity of infection (MOI). For GFPT2 Overexpression the A53T neurons were infected at MOI-3 and harvested 2 weeks post-infection. […]

A53T iPSn [5] = assay: GCase solubility and maturation (sequential extraction, Endo H, western blot); type: cell-based, human; conditions: 10 mM GlcNAc for 7 days
Experimental: as §1
Analysis of post-ER GCase: This assay was performed as described in detail (Cuddy and Mazzulli, 2021). Briefly, 40 ug of lysate were subjected to Endoglycosidase H (Endo H) digestion as per the manufacturer's protocol (New England Biolabs, https://www.neb.com) at 37° C. for 2 h. Duplicate samples without enzyme were incubated under the same conditions serving as control (undigested samples). […] Endo H resistant bands migrating 62-64 kDa were measured as post-ER forms and maturation was calculated by quantifying the post-ER/ER ratios. Quantification was performed on Image Studio software (Licor). […] Standard error of the mean values were graphed, analyzed by student's t-test, and p values <0.05 were considered significant. […]

A53T iPSn [6] = assay: α-syn sequential extraction/western blot; type: cell-based, human; conditions: 10 mM GlcNAc for 7 days
Experimental: as §1
The transfection was performed with X-tremeGENE transfection reagent (Roche #6366236001) as described previously (Cuddy et al., 2019). Lentiviral particles were collected from the media and concentrated using Lenti-X concentrator (Clontech, #631232). […] The viral particle number and the number of plated cells was used to calculate the multiplicity of infection (MOI). For GFPT2 Overexpression the A53T neurons were infected at MOI-3 and harvested 2 weeks post-infection. A53T neurons were infected with XBP1^s lentivirus at MOI-1 and harvested 16 days post-infection. Neurons infected with lentivirus expressing GFP was used as control.
iPSC neurons were supplemented with or without GlcNAc (A3286-sigma) at 10 mM for 7 days in PBS.

lysosomal GCase = assay: Live-cell lysosomal GCase activity assay; type: cell-based, human; conditions: live A53T patient neurons; 10 mM GlcNAc
Experimental: Live-cell lysosomal GCase activity assay. The procedure and analysis method for the activity assay has been previously described in detail (Cuddy and Mazzulli, 2021). Briefly, one day prior to the assay, cells were treated with 1 mg/ml cascade dextran blue (Life Technologies) in a 96-well plate for 24 hours. This was followed by treatment of cells with DMSO or 200 nM bafilomycin A1 for 1 hour at 37° C. The cells were subjected to 1 hour pulse chase with an artificial fluorescent GCase substrate, 100 ug/ml 5-(pentafluoro-benzoylamino) fluorescein di-ß-D-glucopyranoside (PFB-FDGluc; Life Technologies), at 37° C. The fluorescence signal was measured every 30 minutes for the span of 3-4 hours on a plate reader (Ex=485 nm, Em=530 nm, for the GCase substrates; Ex=400 nm, Em=430 nm for cascade dextran blue). For the analysis, the GCase fluorescence signal was normalized to either lysosomal mass by using cascade dextran blue signal or total cell volume by quantifying CellTag 700 staining signal.
The transfection was performed with X-tremeGENE transfection reagent (Roche #6366236001) as described previously (Cuddy et al., 2019). Lentiviral particles were collected from the media and concentrated using Lenti-X concentrator (Clontech, #631232). […] The viral particle number and the number of plated cells was used to calculate the multiplicity of infection (MOI). […]

A53T iPSn [7] = assay: Hex B glycosylation and maturation by western blot; type: cell-based, human
Experimental: as §1, §2, §3

[8] = system: wild-type or isogenic control neurons; assay: ER stress induction and insoluble GCase in control neurons; type: cell-based, human; conditions: 30 nM Tg for 24 hours
wt iPSn = assay: Quantitative RT-PCR mRNA analysis; type: cell-based, human; conditions: tunicamycin 5 ug/ml, 24 h
Experimental: (§4) Measurement of RNA. Total RNA was extracted and isolated using the PureLink RNA Mini Kit (Thermofisher Scientific). cDNA was synthesized using the RevertAid First Strand cDNA Synthesis Kit (Thermofisher Scientific). Real-time PCR was performed on an Applied Biosystems 7500 Fast system using pre-designed Taqman-primer probe sets: DPAGT1 (Hs00609752_m1), GFPT2 (Hs01049570_m1), XBP1U (Hs02856596_m1), XBP1s (Hs03929085_g1), GRP78 (Hs99999174_m1), HSP90B1/GRP94 (Hs00427665_g1), GBA1 (Hs00164683_m1), HexB (Hs01077594_m1) and ACTB (Hs01060665_g1). The quantifications represent the fold change of target mRNA expression normalized to beta-actin (ACTB) levels by delta-Ct method. The values are mean and s.e.m of biological replicates (n=3-6) with two technical replicates for each.
(§5) Neurons were treated with or without 5 ug/ml tunicamycin (EMD Millipore/Calbiochem) for 24 hrs. Cells were extracted in 1% Triton X-100 buffer and analyzed by western blot for Hex B, Con-A, or GFPT2 as described in “Sequential protein extraction and western blotting analysis”. For mRNA measurement, total RNA was extracted and isolated as described in “Measurement of mRNA.” cDNA was synthesized and subjected to real-time PCR using Taqman-primer probe sets for GFPT2, XBP1U, and GRP78.

control iPSn = assay: N-glycosylated proteins by Con A-biotin western blot; type: cell-based, human; conditions: tunicamycin 5 ug/ml, 24 hours
Experimental: as §1, §5

SNCA-3x iPSn = assay: GFPT2 western blot; type: cell-based, human; conditions: tunicamycin
Experimental: as §1, §5

isogenic controls = assay: GFPT2 western blot; type: cell-based, human; conditions: isogenic controls of SNCA-3x; tunicamycin
Experimental: as §1, §5

A53T iPSn [9] = assay: Quantitative RT-PCR mRNA analysis; type: cell-based, human
Experimental: as §4
. The transfection was performed with X-tremeGENE transfection reagent (Roche #6366236001) as described previously (Cuddy et al., 2019). Lentiviral particles were collected from the media and concentrated using Lenti-X concentrator (Clontech, #631232). […]
as §3

isogenic control iPSn = assay: Hex B glycosylation by western blot; type: cell-based, human; conditions: control cells; tunicamycin
Experimental: as §1, §5

C[C@H]1CCC/C=C/[C@@H]2C[C@H](O)C[C@H]2[C@H](O)/C=C/C(=O)O1 [BFA]
XBP1-S [1]: dramatic upregulation of XBP1-S | mRNA/protein levels of ER chaperones including GRP78, GRP94, and CANX [1]: significantly increased mRNA/protein levels of ER chaperones

C#Cc1cccc(-c2cc(=O)n(C)c3ccc([C@](O)(c4ccc(Cl)cc4)c4cncn4C)cc23)c1 [FTI, 6-[(R)-(4-chlorophenyl)hydroxy(1-methyl-1H-imidazol-5-yl)methyl]-4-(3-ethynylphenyl)-1-methyl-2(1H)-Quinolinone]
GCase maturation [2]: minimal effects | α-syn levels [2]: minimal effects

CC(=O)NC1C(O)[C@H](O)C(CO)O[C@H]1O (stereo partly drawn) [GlcNAc, β-D-(acetylamino)-2-deoxy-glucopyranose]
N-glycosylated proteins (Con A) (A53T iPSn [3]): completely restored the levels of N-glycosylation to control levels | neuron viability (neurofilament / neurite content) (A53T iPSn [4]): improved neuron viability | increase in the levels of mature, soluble GCase (A53T iPSn [5]): 2 fold | reduction in pathological α-syn (A53T iPSn [6]): ~75% | increase of GCase activity levels (lysosomal GCase): ~2 fold | glycosylated and mature forms of Hex B (A53T iPSn [7]; 10 mM GlcNAc for 7 days): enhanced the glycosylated and mature forms of Hex B

C/C=C(/C)C(=O)O[C@H]1C(C)=C2[C@H]([C@@H]1OC(=O)CCCCCCC)[C@@](C)(OC(C)=O)C[C@H](OC(=O)CCC)[C@@]1(O)[C@H]2OC(=O)[C@@]1(C)O [Tg]
XBP1-S [1]: dramatic upregulation of XBP1-S | mRNA/protein levels of ER chaperones including GRP78, GRP94, and CANX [1]: significantly increased mRNA/protein levels of ER chaperones | phospho-eIF2α ([1]; isogenic controls and SNCA-3X DA neurons, 30 nM Tg): increased phospho-eIF2α to a similar degree | GRP78 expression (ER stress) [8]: increased GRP78 expression

tunicamycin
upregulation of GFPT2 mRNA (wt iPSn): ~2 fold | N-glycosylated proteins (Con A) (A53T iPSn [3]): no effect | reduction of N-glycans (control iPSn): ~50% | GFPT2 protein (SNCA-3x iPSn): no effect | elevation of GFPT2 protein (isogenic controls): 60% | UPR-responsive transcripts XBP1 and GRP78 (A53T iPSn [9]; A53T iPSn versus Corr, tunicamycin): less responsive | upregulation of GFPT2 mRNA (A53T iPSn [9]; A53T iPSn, tunicamycin 5 ug/ml, 24 h): ~1.2 fold | Hex B glycosylation (isogenic control iPSn): blocked Hex B glycosylation | Hex B response to tunicamycin (A53T iPSn [7]; A53T iPSn compared to controls): reduced response
